Source: US12448388B2, “PRMT5 inhibitors and uses thereof” (Gilead Sciences, Inc., priority 2023, dated 2025)
Where two headings read alike, the source gives them in different places.

How the values were obtained:
[1] = system: HCT116 MTAP-deleted cell lines; assay: Cell viability assay (CellTiter-Glo, 7 days), HCT116 MTAP-deleted; assay type: cell-based; details: Homo sapiens, HCT-116, HCT116 MTAP-deleted, class symbols, read-out: CC50
Summary of the method: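 First, compounds are serially diluted in DMSO and dispensed into plates, which are frozen until seeding. Next, cells are added and incubated 7 days at 37 °C, 5% CO2, 90% humidity. Finally, CellTiter-Glo reagent is added and luminescence is measured to derive CC50.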

[2] = system: Symmetric Di-methyl Arginine (SDMA) signal (PRMT5 inhibition) in HCT116 MTAP-deleted cells; assay: Symmetric di-methyl arginine image-based high content screen assay (SDMA assay), HCT116 MTAP-deleted; assay type: cell-based; details: for EC50: Homo sapiens, HCT-116, HCT116 MTAP-deleted, class symbols
Protocol: Symmetric di-methyl arginine image-based high content screen assay (SDMA assay) was performed in HCT116 WT and HCT116 MTAP-deleted cell lines to measure Symmetric Di-methyl Arginine (SDMA) signal reduction after selective PRMT5 inhibition in the MTAP-deleted cells. Control compounds were analyzed in parallel each time for quality control.
Briefly, the same compound plates were generated as mentioned in the previous section of Cell viability assay on Day −1. On Day 0, 800 HCT WT or HCT116 MTAP-deleted cell were seeded in compound-containing 384 well plates (50 μl per well) in RPMI 1640 media supplemented with 10% heat inactivated fetal bovine serum, Glutamax and penicillin streptomycin using EL460 liquid dispenser 5 μl cassette (BioTek, part no. 7170011). After equilibrating the plate at room temperature, the cells were incubated for 3 days inside the sealed incubator set at 37° C. with 90% humidity and 5% C02.
On Day 3, the cells were fixed by adding 45 μl of 8% neutralized formalin solution to each well using EL460 liquid dispenser 5 μl cassette and the cells were incubated for 30 minutes at room temperature. The formalin solution was washed off with […] phosphate buffered saline (dPBS), the 0.1% Triton X-100 solution in dPBS was used to permeabilize the cells for 15 minutes at room temperature. The triton solution was aspirated, 50 μl of Odyssey Blocking buffer +0.05% Tween20 was added and the plate was incubated at room temperature for 30 minutes.
The blocking solution was removed, a 20 μl of SDMA antibody (Cell Signaling Technology, Cat no. 13222) diluted 1:500 in Odyssey Blocking buffer +0.05% Tween20 was added and the plate was incubated at 4° C. overnight. Next day, the primary SDME antibody solution was washed from each well three times with 0.05% Tween20 in dPBS (PBST).
A 30 μl of the secondary antibody, a Goat anti-Rabbit Alexa Fluor Plus 488 (Invitrogen, Cat no. PIA32731) was diluted 1:500 in Odyssey Blocking buffer +0.05% Tween20 and the plate was incubated for 1.5 hours in dark at room temperature. The secondary antibody solution was removed, 30 μl of 5 mg/ml DAPI solution diluted 1:2000 in dPBS was added and the plate was incubated for 30 minutes in dark at room temperature. The DAPI solution was aspirated and the wells were washed six times with dPBS.
The SDMA signal and DAPI signal per cell were counted using a Cellomics CX7 LZR instrument reading under 488 and 405 nm laser, respectively. The SDMA signal was quantified by mean average intensity per cell from Alexa Fluor Plus 488 after the cell was defined with DAPI. The EC50 values for each compound after 3 days of treatment were calculated using 4 parameter non-linear logistical curve fit.
For the SDMA assay i.e. EC50 shown in Table 3A: A: EC50≤1 nM, B: 1 nM<EC50≤5 nM, C: EC50>5 nM.

[3] = HCT116 WT versus HCT116 MTAP-deleted
[4] = HCT116 WT vs HCT116 MTAP-deleted

EC50 selectivity [2, 3]	EC50 [2] [nM]	EC50 selectivity [2, 4]	SMILES	CC50 ([1]; cell viability) [nM]	CC50 ([1]; cell viability assay) [nM]
42	1 to 5		Nc1nc2cc(F)c(C(=O)N3CCCC4OCc5nc(C(F)(F)F)ccc5[C@@H]43)cc2n2cncc12 (mixture of isomers) [Ff-319, Rac-(4-amino-7-fluoroimidazo[1,5-a]quinoxalin-8-yl)((4aS,10bS)-8-(trifluoromethyl)-2,3,4,4a,6,10b-hexahydro-1H-pyrano[3,2-b:5,4-b′]dipyridin-1-yl)methanone]	< 100	
26	1 to 5		C[C@@H]1CC2Cc3cc(C(F)(F)F)ccc3[C@@H]2N(C(=O)c2cc3c(cc2F)nc(N)c2cncn23)C1 (mixture of isomers) [Ff-320, Rac-(4-amino-7-fluoroimidazo[1,5-a]quinoxalin-8-yl)((3R,4aR,9bR)-3-methyl-7-(trifluoromethyl)-2,3,4,4a,5,9b-hexahydro-1H-indeno[1,2-b]pyridin-1-yl)methanone]	< 100	
67	1 to 5		C[C@@H]1C[C@@H]2Cc3nc(C(F)(F)F)ccc3[C@@H]2N(C(=O)c2cc3c(cc2F)nc(N)c2cncn23)C1 (racemic) [Ff-321, Rac-(4-amino-7-fluoroimidazo[1,5-a]quinoxalin-8-yl)((4bR,7R,8aR)-7-methyl-2-(trifluoromethyl)-4b,6,7,8,8a,9-hexahydro-5H-cyclopenta[1,2-b:3,4-b′]dipyridin-5-yl)methanone]	< 100	
	1 to 5	128	Cc1ncc2c(N)nc3cnc(C(=O)N4C[C@H](F)C[C@@H]5Oc6cc(C(F)(F)F)ccc6[C@@H]54)cc3n12 (racemic) [Ff-682, Rac-(4-amino-1-methylimidazo[1,5-a]pyrido[3,4-e]pyrazin-8-yl)((3R,4aS,9bS)-3-fluoro-7-(trifluoromethyl)-3,4,4a,9b-tetrahydrobenzofuro[3,2-b]pyridin-1(2H)-yl)methanone]		< 100
	≤ 1	137	Nc1nc2cc(F)c(C(=O)N3C[C@H](F)CC4Oc5cc(OC(F)(F)F)ccc5C43)cc2n2cncc12 (mixture of isomers) [Fg-57, rac-(4-amino-7-fluoroimidazo[1,5-a]quinoxalin-8-yl)((3R,4aS,9bS)-3-fluoro-7-(trifluoromethoxy)-3,4,4a,9b-tetrahydrobenzofuro[3,2-b]pyridin-1(2H)-yl)methanone]		< 100
	1 to 5	345	Nc1nc2ccc(C(=O)N3C[C@H](F)CC4Oc5cc(OC(F)(F)F)ccc5C43)cc2n2cncc12 (mixture of isomers) [Fg-58, rac-(4-aminoimidazo[1,5-a]quinoxalin-8-yl)((3R,4aS,9bS)-3-fluoro-7-(trifluoromethoxy)-3,4,4a,9b-tetrahydrobenzofuro[3,2-b]pyridin-1(2H)-yl)methanone]		< 100
64	1 to 5		C[C@@H]1CN(C(=O)c2cc3c(cc2F)nc(N)c2cncn23)[C@H]2c3ccc(Br)c(F)c3C[C@H]2O1 (single isomer, unassigned) [Ff-163]	< 100	
	1 to 5	26	Nc1nc2cc(F)c(C(=O)N3CCC[C@H]4OCc5cc(OC(F)F)ccc5[C@H]43)cc2n2cncc12 (single isomer, unassigned) [Ff-391]		< 100
	≤ 1	68	Nc1nc2cc(F)c(C(=O)N3CCC[C@@H]4OCc5cc(OC(F)F)ccc5[C@@H]43)cc2n2cncc12 (single isomer, unassigned) [Ff-392]		< 100
	≤ 1	47	C[C@H]1C[C@@H]2Oc3cc(C(F)(F)F)ccc3[C@@H]2N(C(=O)c2cc3c(cn2)nc(N)c2cncn23)C1 (single isomer, unassigned) [Ff-399]		< 100
	> 5	315	Nc1nc2cnc(C(=O)N3CCC[C@@H]4Oc5cc(C(F)(F)F)ccc5[C@@H]43)cc2n2c(F)ncc12 (single isomer, unassigned) [Ff-625]		100 to 1000
	1 to 5	143	Nc1nc2cnc(C(=O)N3CCC[C@@H]4Oc5cc(C(F)(F)F)ccc5[C@@H]43)cc2n2cnc(F)c12 (single isomer, unassigned) [Ff-626]		< 100
	≤ 1	313	Nc1nc2ccc(C(=O)N3C[C@H](F)C[C@@H]4Oc5cc(C(F)(F)F)ccc5[C@@H]43)cc2n2cncc12 (single isomer, unassigned) [Ff-681]		< 100
	≤ 1	325	Nc1nc2cnc(C(=O)N3CCC[C@@H]4Cc5cc(C(F)(F)F)ccc5[C@@H]43)cc2n2cncc12 (single isomer, unassigned) [Ff-687]		< 100
	≤ 1	59	C[C@H]1C[C@@H]2Oc3cc(C(F)(F)F)ccc3[C@@H]2N(C(=O)c2ccc3nc(N)c4cncn4c3c2)C1 (single isomer, unassigned) [Ff-689]		< 100
152	> 5		CC(=O)N(C)N(Cc1ccc(C(F)(F)F)cn1)C(=O)c1ccc2nc(N)n3cncc3c2c1 [Fa-1, N′-acetyl-5-amino-N′-methyl-N-((5-(trifluoromethyl)pyridin-2-yl)methyl)imidazo[1,5-c]quinazoline-9-carbohydrazide]	> 1000	
17	≤ 1		Cc1ncc2c(N)nc3ccc(C(=O)N(Cc4ccc(C(F)(F)F)cn4)N(C)c4ncccn4)cc3n12 [Fa-2, 4-amino-N′,1-dimethyl-N′-pyrimidin-2-yl-N-[[5-(trifluoromethyl)-2-pyridyl]methyl]imidazo[1,5-a]quinoxaline-8-carbohydrazide]	< 100	
22	> 5		Nc1nc2ccc(C(=O)N(Cc3ccc(C(F)(F)F)cn3)N3CCOCC3)cc2c2cncn12 [Fa-3, 5-amino-N-morpholino-N-((5-(trifluoromethyl)pyridin-2-yl)methyl)imidazo[1,5-c]quinazoline-9-carboxamide]	> 1000	
74	1 to 5		Cc1ncn2c1c(N)nc1ccc(C(=O)N(Cc3ccc(C(F)(F)F)cc3F)N(C)C(=O)C3CC3)cc12 [Fa-4, 4-amino-N′-(cyclopropanecarbonyl)-N-(2-fluoro-4-(trifluoromethyl)benzyl)-N′,3-dimethylimidazo[1,5-a]quinoxaline-8-carbohydrazide]	< 100	
101	1 to 5		CC(=O)N(C)N(Cc1ccc(-c2cnn(C(F)(F)F)c2)cc1F)C(=O)c1ccc2nc(N)c3c(C)ncn3c2c1 [Fa-5, N′-acetyl-4-amino-N-(2-fluoro-4-(1-(trifluoromethyl)-1H-pyrazol-4-yl)benzyl)-N′,3-dimethylimidazo[1,5-a]quinoxaline-8-carbohydrazide]	< 100	
129	1 to 5		CC(=O)N(C)N(Cc1ccc(Cl)cc1C#N)C(=O)c1ccc2nc(N)c3c(C)ncn3c2c1 [Fa-6, N′-acetyl-4-amino-N-(4-chloro-2-cyanobenzyl)-N′,3-dimethylimidazo[1,5-a]quinoxaline-8-carbohydrazide]	< 100	
159	> 5		CC(=O)N(C)N(Cc1ccc(C(F)(F)F)cc1F)C(=O)c1ccc2nc(N)c3c(C)nc(C)n3c2c1 [Fa-7, N′-acetyl-4-amino-N-(2-fluoro-4-(trifluoromethyl)benzyl)-N′,1,3-trimethylimidazo[1,5-a]quinoxaline-8-carbohydrazide]	100 to 1000	
